The text below walks through data of patent US20140090094A1, “MODULATORS OF SLC22A7” (BAYER INTELLECTUAL PROPERTY GmbH, priority 2011, published 2014).

The target of test [1] is T1, OAT2h (Homo sapiens, UniProt Q9Y694).
T1 construct: expressed in transfected cells; host or cells: 293 cells (HEK-293), pEBTetD/OAT2h, doxycycline-inducible
T1 sequence (Q9Y694 1-546 isoform Q9Y694-2): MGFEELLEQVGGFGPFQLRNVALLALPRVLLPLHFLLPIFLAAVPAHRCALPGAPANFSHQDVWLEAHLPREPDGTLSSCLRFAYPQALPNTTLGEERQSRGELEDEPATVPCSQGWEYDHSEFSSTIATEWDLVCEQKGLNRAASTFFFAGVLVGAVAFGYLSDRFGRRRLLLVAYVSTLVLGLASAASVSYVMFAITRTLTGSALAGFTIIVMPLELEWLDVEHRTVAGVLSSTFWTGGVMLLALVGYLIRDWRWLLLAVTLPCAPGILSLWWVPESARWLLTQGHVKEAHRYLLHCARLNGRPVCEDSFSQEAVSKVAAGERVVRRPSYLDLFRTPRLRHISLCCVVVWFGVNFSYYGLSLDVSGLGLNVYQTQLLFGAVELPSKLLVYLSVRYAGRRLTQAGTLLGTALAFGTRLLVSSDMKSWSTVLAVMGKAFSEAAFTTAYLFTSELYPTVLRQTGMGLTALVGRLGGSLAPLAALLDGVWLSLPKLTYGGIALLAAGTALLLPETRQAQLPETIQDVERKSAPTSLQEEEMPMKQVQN
The experiment in a line: intracellular glutamate content of 293 cells expressing OAT2h versus uninduced control cells. In kind it is cell-based. The settings on record: n=2.

For test [2], the target named is T2, OAT2r (Rattus norvegicus, UniProt Q5RLM2).
T2 construct: expressed in transfected cells
T2 sequence (Q5RLM2 1-535): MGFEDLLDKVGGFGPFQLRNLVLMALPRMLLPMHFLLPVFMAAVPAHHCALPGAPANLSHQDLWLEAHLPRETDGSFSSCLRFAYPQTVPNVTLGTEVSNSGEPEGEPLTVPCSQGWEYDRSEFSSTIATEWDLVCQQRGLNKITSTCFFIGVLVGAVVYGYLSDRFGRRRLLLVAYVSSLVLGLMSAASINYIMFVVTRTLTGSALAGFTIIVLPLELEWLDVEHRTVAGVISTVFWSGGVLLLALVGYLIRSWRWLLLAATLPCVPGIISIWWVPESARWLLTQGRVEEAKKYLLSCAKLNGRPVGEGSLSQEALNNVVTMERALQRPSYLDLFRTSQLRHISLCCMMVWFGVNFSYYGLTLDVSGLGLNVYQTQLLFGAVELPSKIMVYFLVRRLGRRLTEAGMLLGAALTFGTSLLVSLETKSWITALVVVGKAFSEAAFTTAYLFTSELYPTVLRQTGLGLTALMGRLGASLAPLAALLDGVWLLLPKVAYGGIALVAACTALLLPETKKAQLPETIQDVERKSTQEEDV
The test can be described thus: intracellular glutamate content of 293 cells expressing OAT2r versus uninduced control cells. The conditions noted are these: n=4. It counts as cell-based.

As for `N[C@@H](CCC(=O)O)C(=O)O` [glutamate], the “intracellular glutamate content versus uninduced control cells (factor f)” value in test [1] is recorded as 0.60±0.09; in test [2], 0.55±0.11.
